Laboratory results as given in patent publication US8299083B2, “PDE5 inhibitor compositions and methods for treating cardiac indications” (The Johns Hopkins University, priority 2004, dated 2012).

What was measured:
[1] = system: C57BL/6 mice, pressure overload by transverse aortic constriction; assay: Serial echocardiography in conscious mice with transverse aortic constriction (TAC); format: in vivo, mouse; conditions: for EF (ejection fraction) / HR (heart rate) / LV Dim (dia) / LV Dim (sys) / LV Mass (estimated, truncated ellipsoid model) / Wall Thickness: sildenafil treated
[2] = system: C57BL/6 mice, pressure overload by transverse aortic constriction; assay: TAC-induced cardiac hypertrophy, remodeling and fibrosis (heart weight/tibia length, histology); format: in vivo, mouse
Description: TAC induced marked heart chamber and cellular hypertrophy (+100% by 3-weeks) that progressed to chamber dilation with reduced fractional shortening after 9 weeks. […] TAC induced a time-dependent increase in myocardial fibrosis and myocyte hypertrophy and both were suppressed by PDE5A inhibition (FIG. 1C, e.g. 67% reduction in fibrosis in 9-week hearts, p<0.0001).
Pressure overload was produced by transverse aortic constriction.
Hearts were fixed with 10% formalin overnight, then embedded in paraffin, sectioned at 5 μm thickness and stained with PAS methenamine. Cardiomyocyte diameter and interstitial collagen fraction were determined using computer-assisted image analysis (Adobe Photoshop 5.0, NIH Image J), with the observer blinded as to tissue source. At least 4-5 different hearts, with five separate fields of cells (total 50-70 cells for each heart) were quantified for cellular analysis.

PKG-1 = assay: Whole heart PKG-1 activity; format: in vivo, mouse; conditions: chronic treatment
Description: PI3Kα activity was assessed by Elisa assay following immunoprecipitation of PI3K (Seize X IP Kit, Pierce) using a p85α monoclonal antibody (Cell Signaling), with activity measured by fluorescence polarization (Molecular Devices, Perkin-Elmer Victor 3 plate reader). Akt activity (IP with s473-pAkt Ab, GSK-3 fusion protein substrate) was performed using a commercial kit (Cell Signaling Technology, Beverly, Mass.). PKG-1 activity was assayed by calorimetric analysis, CycLex (Clinisciences, Montrouge, FR) from whole heart lysates.

NFAT = NFAT promoter activation in neonatal rat myocytes (β-galactosidase / luciferase reporter); format: cell-based; conditions: stimulated by PE or BayK8644, 1 μM sildenafil
Description: Rat neonatal cardiac myocytes were isolated from 1- to 2-day-old Sprague-Dawley rats as described^50. […] Sigma Chemical (St. […] To assess NFAT activation, cells were transfected with adenovirus expressing the three NFAT-binding sites linked to β-galactosidase ([…]), using previously described methods^72. Additional studies were performed using an alternative reporter adenovirus encoding luciferase driven by the NFAT promoter. This was performed twenty-four hours prior to PE, BayK8644, or activated calcineurin stimulation. The latter was achieved by a co-transfection with a replication-deficient adenovirus encoding a Ca^2+-independent, constitutively active, truncated mouse calcineurin […]^72). […] After an additional forty-eight hours, NFAT activation was assessed by β-galactosidase histology/activity or luciferase activity. […] Luciferase activity was assayed by commercial kit (Stratagene, La Jolla, Calif.) and read on a plate luminometer.

STAT3 = STAT3 phosphorylation in TAC hearts; format: in vivo, mouse
Description: Myocardial tissue extract was electrophoresed in SDS-New Page gel, and probed for both tyrosine phosphorylated (Tyr705) and total Stat3. In additional studies, rat neonatal myocytes were cultured, then exposed to interleukin 6 (IL-6, Cell Signaling, 100 ng/ml) for one hour. […] In other studies, cells were pre-transfected (Lipofectamine™, Invitrogen) with mixed oligonucleotide silencing RNAs for STAT3 (siRNA, SmarTTpool Stat3). Protein extracts were obtained from myocyte extracts after the 1 hour incubation period, and probed for phosphorylated and total protein levels of Stat1 (Tyr701) and Stat3 (Tyr705) (Cell Signaling Inc.). siRNA was transfected into neonatal myocytes.

[3] = 1-week TAC, then 2 weeks treatment

Q: For `CCCc1nn(C)c2c(=O)[nH]c(-c3cc(S(=O)(=O)N4CCN(C)CC4)ccc3OCC)nc12` [sildenafil], which “serial echocardiography, established hypertrophy” value [1, 3] is on record?
A: gradual decline in LV mass and wall thickness, with preservation of systolic ejection

Q: What about the “EF (ejection fraction)” value ([1]; Control (sham)) of the same molecule?
A: 96.5 ± 0.2%

Q: What about the “HR (heart rate)” value ([1]; Control (sham)) of the same molecule?
A: 634 ± 9 min⁻¹

Q: And the “LV Dim (dia)” value ([1]; Control (sham))?
A: 2.87 ± 0.09 mm

Q: What about the “LV Dim (sys)” value ([1]; Control (sham)) of the same molecule?
A: 0.89 ± 0.05 mm

Q: And the “LV Mass (estimated, truncated ellipsoid model)” value (shortened to “LV Mass”) ([1]; Control (sham))?
A: 59.1 ± 5.6 mg

Q: And the “Wall Thickness” value ([1]; Control (sham))?
A: 0.71 ± 0.02 mm

Q: And the “EF (ejection fraction)” value ([1]; TAC-3 wks)?
A: 93.4 ± 1.1 %

Q: And the “HR (heart rate)” value ([1]; TAC-3 wks)?
A: 595 ± 7 min⁻¹

Q: And the “LV Dim (dia)” value ([1]; TAC-3 wks)?
A: 3.09 ± 0.06 mm

Q: What about the “LV Dim (sys)” value ([1]; TAC-3 wks) of the same molecule?
A: 1.17 ± 0.08 mm

Q: And the “LV Mass” value ([1]; TAC-3 wks)?
A: 82.2 ± 5.0 mg

Q: And the “Wall Thickness” value ([1]; TAC-3 wks)?
A: 0.82 ± 0.02 mm

Q: What about the “EF (ejection fraction)” value ([1]; TAC-6 wks) of the same molecule?
A: 74.9 ± 7.1 %

Q: And the “HR (heart rate)” value ([1]; TAC-6 wks)?
A: 617 ± 18 min⁻¹

Q: And the “LV Dim (dia)” value ([1]; TAC-6 wks)?
A: 3.67 ± 0.24 mm

Q: What about the “LV Dim (sys)” value ([1]; TAC-6 wks) of the same molecule?
A: 2.24 ± 0.37 mm

Q: And the “LV Mass” value ([1]; TAC-6 wks)?
A: 115.6 ± 14.2 mg

Q: What about the “Wall Thickness” value ([1]; TAC-6 wks) of the same molecule?
A: 0.86 ± 0.03 mm

Q: What about the “EF (ejection fraction)” value ([1]; TAC-9 wks) of the same molecule?
A: 71.7 ± 9.9 %

Q: What about the “HR (heart rate)” value ([1]; TAC-9 wks) of the same molecule?
A: 608 ± 25 min⁻¹

Q: What about the “LV Dim (dia)” value ([1]; TAC-9 wks) of the same molecule?
A: 4.14 ± 0.36 mm

Q: And the “LV Dim (sys)” value ([1]; TAC-9 wks)?
A: 2.54 ± 0.57 mm

Q: What about the “LV Mass” value ([1]; TAC-9 wks) of the same molecule?
A: 142.5 ± 21.5 mg

Q: What about the “Wall Thickness” value ([1]; TAC-9 wks) of the same molecule?
A: 0.86 ± 0.03 mm

Q: And the “myocyte hypertrophy and interstitial fibrosis, established hypertrophy” value [2, 3]?
A: both reversed towards baseline

Q: And the reduction in fibrosis ([2]; 9-week TAC hearts)?
A: 67%

Q: And the “TAC-induced hypertrophy and chamber remodeling” value ([2]; TAC mice, concurrent oral treatment)?
A: inhibited

Q: What about the “reduction of cardiac hypertrophy (heart weight/tibia length)” value ([2]; TAC mice, sildenafil 100 mg/kg/day) of the same molecule?
A: more than 50%

Q: What about the “effect on sham-operated controls” value ([2]; sham-operated mice) of the same molecule?
A: no impact

Q: And the “whole heart PKG-1 activity” value (PKG-1; TAC hearts)?
A: more than doubled PKG-1 activity

Q: And the “whole heart PKG-1 activity” value (PKG-1; sham controls)?
A: no effect on activity

Q: And the NFAT promoter activation (NFAT)?
A: suppressed activation

Q: And the “STAT3 activation (phosphorylation)” value (STAT3)?
A: inhibits activation of STAT3
